{"source": "ChEMBL document CHEMBL1145078", "about": "“Discovery and preclinical characterization of (+)-3-[4-(1- piperidinoethoxy)phenyl]spiro[indene- 1,1'-indane]-5,5'-diol hydrochloride: a promising nonsteroidal estrogen receptor agonist for hot flush” (J Med Chem, 2003)", "species_on_record": "Rattus norvegicus", "experiment": "Dose required to prevent loss of total bone mineral density of rat distal femur", "type": "functional"}
{"smiles": "Cl.Oc1ccc2c(c1)CCC21C=C(c2ccc(OCCN3CCCCC3)cc2)c2cc(O)ccc21", "note": "(single isomer, unassigned; (+))", "values": [{"measurement": "Dose", "value": 0.1, "unit": "mg/kg/day"}]}
